Measurements published in patent US20240216344A1, “THIAZOLIDINEDIONE ANALOGS FOR THE TREATMENT OF NAFLD AND METABOLIC DISEASES” (Cirius Therapeutics, Inc., priority 2019, published 2024).
Read-outs that look alike come from different tables or passages of the source.

What was measured:
patients with NASH [1] = conditions: cited from earlier work
patients with NASH [2] = assay: Meta-analysis of 17 NASH clinical trials: change from baseline in LFTs and biomarkers by study arm, composite outcome; assay type: in vivo, human; conditions: 17 NASH clinical trials
Description: Meta-regressions of NASH clinical trials were performed to examine associations between biomarker and histological changes within treatment groups, and to additionally examine associations between treatment effects on biomarkers and on liver histology. Trials that met the following criteria were included: • Randomized controlled clinical trial • Paired biopsies performed at baseline and follow-up, scored using the NASH CRN system.
• Published results at baseline, follow-up, or changes from baseline for any the following liver injury markers or biomarkers: alanine aminotransferase (ALT), aspartate aminotransferase (AST), alkaline phosphatase, hemoglobin A1c (HbA1c), gamma-glutamyltransferase (GGT), insulin, cytokeratin-18 (CK-18), or Enhanced Liver Fibrosis (ELF) score. Variables selected were based on variables whose change was commonly reported in multiple studies. • Changes in histological scores for ballooning, inflammation, steatosis, and fibrosis, or the pre-determined endpoints of NASH resolution without worsening fibrosis or improvement in fibrosis with no worsening of NASH.
All results from a search of PubMed for the keywords (“nonalcoholic steatohepatitis” or “non-alcoholic steatohepatitis”) and (“clinical trial” or “randomized”) and filtered for “Clinical Trial” were reviewed. EudraCT and ClinicalTrials.gov were searched for the keyword “nonalcoholic steatohepatitis” with results further filtered for phase 2 or 3, interventional, terminated or completed trials. These three sources returned 265 (PubMed), 153 (ClinicalTrials.gov), and 56 (EudraCT) results, which were each individually reviewed for inclusion in the analysis. Data extracted by one analyst from each source that included means and SDs at baseline, end of study, and changes from baseline to end of study for continuous variables were verified and corrected by a second analyst. Where SDs were not available, any provided estimate of variation was used to derive the SD where possible; a plot-digitizer program was used where data were presented in figures only. Data for dichotomous endpoints were extracted as the number of subjects with the event and corresponding sample size.
Random effects weighted least squares meta-regressions with inverse variance weighting were used to examine the association of changes in ALT, AST, CK-18, HbA1c, fasting insulin levels, ELF, alkaline phosphatase and GGT with biopsy outcomes. CK-18[M30] was measured in all studies except EMMINENCE where CK-18[M651 was reported. These associations were assessed at an individual cohort level (within treatment group), as well as based on the treatment effect. Percent change from baseline in liver injury makers and biomarkers was used as the predictor when examining the associations in the individual cohorts with outcomes while the treatment ratio, the ratio of active to placebo with respect to the relative changes from baseline, was used as the predictor when assessing the association with the treatment effect on outcomes. Standardized mean changes (mean/SD) or standardized mean treatment differences (mean difference/pooled SD) were used for continuous outcomes and Freeman-Tukey double arcsine transformed proportions or log odds ratios were used for dichotomous outcomes. Meta-regression results were computed using the metafor package available in R. P-values <0.05 were considered statistically significant.
From the meta-regression results, ranks for the association with responses and treatment effects for each histologic outcome (changes in ballooning, inflammation, steatosis, and fibrosis; NASH resolution without worsening of fibrosis, and fibrosis improvement without worsening of NAS) were assigned across seven biomarkers (AST, GGT, HbA1c, insulin, CK-18, ELF, and alkaline phosphatase) for both the slope and the mediator p-value (ranks 1-7, with 7 assigned to the biomarker with the greatest slope or lowest p-value). An average rank across all outcomes was then assigned to each biomarker. […]

patients with NASH [3] = conditions: cited from earlier work; remark: listed apart in the source
[4] = ARREST, 400 mg, follow-up 12 months
[5] = ARREST, 600 mg, follow-up 12 months
[6] = CENTAUR, 150 mg, follow-up 12 months
[7] = GOLDEN trial, Elafibranor 120 mg
[8] = GOLDEN, 80 mg, follow-up 12 months
[9] = GOLDEN, 120 mg, follow-up 12 months
[10] = ENCORE-HF trial, Emricasan 5 mg
[11] = ENCORE-HF trial, Emricasan 50 mg
[12] = MADRIGAL trial, Resmetirom 80 mg
[13] = MADRIGAL, 80 mg, follow-up 9 months

## CCCCCCCCCCCCCCCCCCCC(=O)N[C@H]1CC[C@@]2(C)[C@@H](C1)C[C@@H](O)[C@@H]1[C@@H]2C[C@H](O)[C@]2(C)[C@@H]([C@H](C)CCC(=O)O)CC[C@@H]12 [Aramachol, reference compound]
Patients with NASH [1]; ARREST trial, Aramchol 400 mg
  Fibrosis Improvement: 17/80
  NASH Resolution: 6/80
Patients with NASH [1]; ARREST trial, Aramchol 600 mg
  Fibrosis Improvement: 23/78
  NASH Resolution: 13/78
Patients with NASH [2]
  treatment effect on the surrogate endpoint (weighted average of changes in AST, CK-18, HbA1c): largest treatment effects
Patients with NASH [3]; [4]
  % Change from Baseline ALT: −18.06%
  % Change from Baseline HbA1c: −0.62%
Patients with NASH [3]; [5]
  % Change from Baseline ALT: −32.02%
  % Change from Baseline HbA1c: −1.79%

## CCCCOCCOc1ccc(-c2ccc3c(c2)/C=C(/C(=O)Nc2ccc([S@@+]([O-])Cc4cncn4CCC)cc2)CCCN3CC(C)C)cc1 [Cenicriviroc]
Patients with NASH [1]; CENTAUR trial, Cenicriviroc 150 mg
  Fibrosis Improvement: 29/145
Patients with NASH [3]; [6]
  % Change from Baseline ALT: 11.23%
  % Change from Baseline AST: 11.67%
  % Change from Baseline Alk Phos: 1.24%
  % Change from Baseline CK-18: −12.34%
  % Change from Baseline GGT: 2.68%
  % Change from Baseline HbA1c: −0.75%
  % Change from Baseline Insulin: 2.14%

## CSc1ccc(C(=O)/C=C/c2cc(C)c(OC(C)(C)C(=O)O)c(C)c2)cc1 [Elafibranor]
Patients with NASH [1]; GOLDEN trial, Elafibranor 80 mg
  NASH Resolution: 12/93
Patients with NASH [1]; [7]
  Change from Baseline, mean: Ballooning: −0.07
  Change from Baseline, mean: Fibrosis: −0.07
  Change from Baseline, mean: Inflammation: −0.32
  Change from Baseline, mean: Steatosis: 0.02
  NASH Resolution: 17/89
Patients with NASH [3]; [8]
  % Change from Baseline ALT: −9.72%
  % Change from Baseline AST: −16.87%
  % Change from Baseline Alk Phos: −25.87%
  % Change from Baseline GGT: −34.54%
Patients with NASH [3]; [9]
  % Change from Baseline ALT: −19.75%
  % Change from Baseline AST: −30.22%
  % Change from Baseline Alk Phos: −26.41%
  % Change from Baseline GGT: −41.68%

## C[C@H](NC(=O)C(=O)Nc1ccccc1C(C)(C)C)C(=O)N[C@@H](CC(=O)O)C(=O)COc1c(F)c(F)cc(F)c1F [Emricasan]
Patients with NASH [1]; [10]
  Change from Baseline, mean: Ballooning: 0.04
  Change from Baseline, mean: Fibrosis: 0.41
  Change from Baseline, mean: Inflammation: −0.11
  Change from Baseline, mean: Steatosis: −0.20
  Fibrosis Improvement: 12/107
  NASH Resolution: 4/107
Patients with NASH [1]; [11]
  Change from Baseline, mean: Ballooning: 0.13
  Change from Baseline, mean: Fibrosis: 0.36
  Change from Baseline, mean: Inflammation: 0.09
  Change from Baseline, mean: Steatosis: −0.27
  Fibrosis Improvement: 13/106
  NASH Resolution: 7/106
Patients with NASH [3]; ENCORE-HF, 5 mg
  % Change from Baseline ALT: −35.28%
  % Change from Baseline AST: −18.47%
  % Change from Baseline CK-18: −36.86%
Patients with NASH [3]; ENCORE-HF, 50 mg
  % Change from Baseline ALT: −45.17%
  % Change from Baseline AST: −19.83%
  % Change from Baseline CK-18: −45.07%

## CC(C)c1cc(Oc2c(Cl)cc(-n3nc(C#N)c(=O)[nH]c3=O)cc2Cl)n[nH]c1=O [Resmetirom]
Patients with NASH [1]; [12]
  Fibrosis Improvement: 21/73
  NASH Resolution: 18/73
Patients with NASH [3]; [13]
  % Change from Baseline ALT: −30.80%
  % Change from Baseline AST: −21.08%
  % Change from Baseline Alk Phos: 7.85%
  % Change from Baseline CK-18: −35.15%
  % Change from Baseline ELF: −7.17%
  % Change from Baseline GGT: −18.76%
  % Change from Baseline HbA1c: 0.63%
